System: 931267-113-T-J1-PDC multicell spheroid viability
Test: Anticancer human tumor 931267-113-T-J1-PDC patient-derived colon adenocarcinoma cell line growth inhibition [PI3K]
Settings: for IC50: curve of first compound; for viability, T/C: stronger effect = lower value; active = viability on the fitted dose curve at most 10% of control; inactive = the rest
Outline: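 Viability of mixed-cell spheroids was determined after exposure to pairwise combinations, one partner being inavolisib, alpelisib, duvelisib or copanlisib. Highest tested concentration matched clinical Cmax where known and 10 microM where not, descending in half-log steps.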

[1] = second compound 0.0316 µM, first compound 0.000316 µM
[2] = second compound 0.0316 µM, first compound 0.001 µM
[3] = second compound 0.0316 µM, first compound 0.00316 µM
[4] = second compound 0.0316 µM, first compound 0.01 µM
[5] = second compound 0.0316 µM, first compound 0.0316 µM
[6] = second compound 0.0316 µM, first compound 0.1 µM
[7] = second compound 0.1 µM, first compound 0.000316 µM
[8] = second compound 0.1 µM, first compound 0.001 µM
[9] = second compound 0.1 µM, first compound 0.00316 µM
[10] = second compound 0.1 µM, first compound 0.01 µM
[11] = second compound 0.1 µM, first compound 0.0316 µM
[12] = second compound 0.1 µM, first compound 0.1 µM
[13] = second compound 0.316 µM, first compound 0.000316 µM
[14] = second compound 0.316 µM, first compound 0.001 µM
[15] = second compound 0.316 µM, first compound 0.00316 µM
[16] = second compound 0.316 µM, first compound 0.01 µM
[17] = second compound 0.316 µM, first compound 0.0316 µM
[18] = second compound 0.316 µM, first compound 0.1 µM
[19] = second compound 1 µM, first compound 0.000316 µM
[20] = second compound 1 µM, first compound 0.001 µM
[21] = second compound 1 µM, first compound 0.00316 µM
[22] = second compound 1 µM, first compound 0.01 µM
[23] = second compound 1 µM, first compound 0.0316 µM
[24] = second compound 1 µM, first compound 0.1 µM
[25] = second compound 3.16 µM, first compound 0.000316 µM
[26] = second compound 3.16 µM, first compound 0.001 µM
[27] = second compound 3.16 µM, first compound 0.00316 µM
[28] = second compound 3.16 µM, first compound 0.01 µM
[29] = second compound 3.16 µM, first compound 0.0316 µM
[30] = second compound 3.16 µM, first compound 0.1 µM
[31] = second compound 10 µM, first compound 0.000316 µM
[32] = second compound 10 µM, first compound 0.001 µM
[33] = second compound 10 µM, first compound 0.00316 µM
[34] = second compound 10 µM, first compound 0.01 µM
[35] = second compound 10 µM, first compound 0.0316 µM
[36] = second compound 10 µM, first compound 0.1 µM
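Note: viability read 7 days after compound addition.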

CC(=O)c1c(C)c2cnc(Nc3ccc(N4CCNCC4)cn3)nc2n(C2CCCC2)c1=O + CC(Nc1ncnc2nc[nH]c12)c1cc2cccc(Cl)c2c(=O)n1-c1ccccc1
> 100 nM: IC50 (second compound 0.0316 µM) | IC50 (second compound 0.1 µM) | IC50 (second compound 0.316 µM) | IC50 (second compound 1 µM) | IC50 (second compound 3.16 µM) | IC50 (second compound 10 µM)
inactive: viability, T/C [1] 115% | viability, T/C [2] 99% | viability, T/C [3] 96.5% | viability, T/C [4] 101% | viability, T/C [5] 120% | viability, T/C [6] 114% | viability, T/C [7] 106% | viability, T/C [8] 104% | viability, T/C [9] 110% | viability, T/C [10] 99.5% | viability, T/C [11] 110% | viability, T/C [12] 103% | viability, T/C [13] 109% | viability, T/C [14] 105% | viability, T/C [15] 98.1% | viability, T/C [16] 111% | viability, T/C [17] 108% | viability, T/C [18] 94.6% | viability, T/C [19] 104% | viability, T/C [20] 105% | viability, T/C [21] 104% | viability, T/C [22] 114% | viability, T/C [23] 99% | viability, T/C [24] 102% | viability, T/C [25] 106% | viability, T/C [26] 95.7% | viability, T/C [27] 90.7% | viability, T/C [28] 98% | viability, T/C [29] 103% | viability, T/C [30] 96.1% | viability, T/C [31] 97.3% | viability, T/C [32] 94.9% | viability, T/C [33] 98% | viability, T/C [34] 93.3% | viability, T/C [35] 94.7% | viability, T/C [36] 84.3%

CC(C)n1nc(-c2ccc3oc(N)nc3c2)c2c(N)ncnc21 + CC(Nc1ncnc2nc[nH]c12)c1cc2cccc(Cl)c2c(=O)n1-c1ccccc1
inactive: viability, T/C [1] 101% | viability, T/C [2] 103% | viability, T/C [3] 97.8% | viability, T/C [4] 88.7% | viability, T/C [5] 92.6% | viability, T/C [6] 51.7% | viability, T/C [7] 106% | viability, T/C [8] 104% | viability, T/C [9] 92.7% | viability, T/C [10] 89.5% | viability, T/C [11] 79.8% | viability, T/C [12] 55.8% | viability, T/C [13] 113% | viability, T/C [14] 105% | viability, T/C [15] 93% | viability, T/C [16] 94.2% | viability, T/C [17] 86.5% | viability, T/C [18] 54.1% | viability, T/C [19] 95.6% | viability, T/C [20] 98% | viability, T/C [21] 91% | viability, T/C [22] 92.2% | viability, T/C [23] 87.5% | viability, T/C [24] 57% | viability, T/C [25] 93.8% | viability, T/C [26] 95% | viability, T/C [27] 88.4% | viability, T/C [28] 88.8% | viability, T/C [29] 81.8% | viability, T/C [30] 52.5% | viability, T/C [31] 87.5% | viability, T/C [32] 83.9% | viability, T/C [33] 91.6% | viability, T/C [34] 84.3% | viability, T/C [35] 74.8% | viability, T/C [36] 58.9%
> 100 nM: IC50 (second compound 0.0316 µM) | IC50 (second compound 0.1 µM) | IC50 (second compound 0.316 µM) | IC50 (second compound 1 µM) | IC50 (second compound 3.16 µM) | IC50 (second compound 10 µM)

CCCS(=O)(=O)Nc1ccc(F)c(C(=O)c2c[nH]c3ncc(-c4ccc(Cl)cc4)cc23)c1F + CC(Nc1ncnc2nc[nH]c12)c1cc2cccc(Cl)c2c(=O)n1-c1ccccc1
6070 nM: IC50 (second compound 0.0316 µM) | IC50 (second compound 0.316 µM)
6040 nM: IC50 (second compound 0.1 µM)
active: viability, T/C (second compound 0.0316 µM, first compound 10 µM) 4.93% | viability, T/C (second compound 0.1 µM, first compound 10 µM) 4.62% | viability, T/C (second compound 0.316 µM, first compound 10 µM) 3.9% | viability, T/C (second compound 1 µM, first compound 10 µM) 4.52% | viability, T/C (second compound 3.16 µM, first compound 10 µM) 5.3% | viability, T/C (second compound 10 µM, first compound 10 µM) 4.17%
5690 nM: IC50 (second compound 10 µM)
5920 nM: IC50 (second compound 3.16 µM)
5960 nM: IC50 (second compound 1 µM)
inactive: viability, T/C [5] 102% | viability, T/C [6] 101% | viability, T/C (second compound 0.0316 µM, first compound 0.316 µM) 104% | viability, T/C (second compound 0.0316 µM, first compound 1 µM) 125% | viability, T/C (second compound 0.0316 µM, first compound 3.16 µM) 112% | viability, T/C [11] 101% | viability, T/C [12] 111% | viability, T/C (second compound 0.1 µM, first compound 0.316 µM) 103% | viability, T/C (second compound 0.1 µM, first compound 1 µM) 107% | viability, T/C (second compound 0.1 µM, first compound 3.16 µM) 119% | viability, T/C [17] 107% | viability, T/C [18] 103% | viability, T/C (second compound 0.316 µM, first compound 0.316 µM) 109% | viability, T/C (second compound 0.316 µM, first compound 1 µM) 122% | viability, T/C (second compound 0.316 µM, first compound 3.16 µM) 110% | viability, T/C [23] 102% | viability, T/C [24] 93.9% | viability, T/C (second compound 1 µM, first compound 0.316 µM) 113% | viability, T/C (second compound 1 µM, first compound 1 µM) 110% | viability, T/C (second compound 1 µM, first compound 3.16 µM) 109% | viability, T/C [29] 99.2% | viability, T/C [30] 99.9% | viability, T/C (second compound 3.16 µM, first compound 0.316 µM) 102% | viability, T/C (second compound 3.16 µM, first compound 1 µM) 116% | viability, T/C (second compound 3.16 µM, first compound 3.16 µM) 104% | viability, T/C [35] 92.3% | viability, T/C [36] 95.2% | viability, T/C (second compound 10 µM, first compound 0.316 µM) 99.6% | viability, T/C (second compound 10 µM, first compound 1 µM) 108% | viability, T/C (second compound 10 µM, first compound 3.16 µM) 97.7%

From PubChem BioAssay AID1963970 (Molecular Pharmacology Branch, DTP, NCI, 2024)
